According to EP4768484A1, “HETEROCYCLIC FUSED RING COMPOUND, AND COMPOSITION AND USE THEREOF” (Shenzhen TargetRx, Inc., priority 2023, dated 2025):

Experiments:
Format in all cases: cell-based
[1] = test system: K562 cells; assay: Cell growth inhibitory activity assay (CellTiter-Glo), K562 cells; conditions: Homo sapiens, 72 h, CTG cell viability
Method in brief: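 K562 cells in logarithmic growth were counted, diluted and plated in 96-well plates, with medium-only blanks and a separate T0 plate read by CTG the following day. After overnight incubation, graded compound concentrations were added for 72 h, with 0.5% DMSO wells as growth controls. Luminescence was read on a Biotek cytation3.0, and IC50 came from nonlinear fitting in GraphPad Prism 7.0.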

[2] = target: T1, Ba/F3 BCR-ABL1 WT (Homo sapiens, UniProt P00519+P11274); assay: Cell growth inhibitory activity assay (CellTiter-Glo), Ba/F3 BCR-ABL1 WT cells; conditions: 72 h, CTG cell viability
T1 construct: BCR (N-terminal fusion partner of the oncoprotein); expressed in transfected cells; host or cells: Ba/F3 (lentiviral transduction, monoclonal line)
Method in brief: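 Ba/F3 lines stably transduced by lentivirus with WT or mutant BCR-ABL1, alongside untransduced parental Ba/F3, were seeded and incubated overnight at 37 °C, 5% CO2, then exposed to serially diluted compound for 72 h. Viability was read as ATP by CellTiter-Glo luminescence against a day-of-dosing T0 plate; IC50 from four-parameter nonlinear fit.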

[3] = target: T2, Ba/F3 BCR-ABL1 T315I (Homo sapiens, UniProt P00519+P11274, T315I); assay: Cell growth inhibitory activity assay (CellTiter-Glo), Ba/F3 BCR-ABL1 T315I cells; conditions: 72 h, CTG cell viability
T2 construct: BCR (N-terminal fusion partner of the oncoprotein); expressed in transfected cells; host or cells: Ba/F3 (lentiviral transduction, monoclonal line)
Method in brief: (§1)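 IC50 values come from nonlinear fitting of % inhibition against log concentration, with viability taken as ATP content by CellTiter-Glo. Parental Ba/F3 or Ba/F3 monoclonal lines expressing lentivirally introduced mutant BCR-ABL1 were dosed for 72 h; controls included 0.5% DMSO wells and a T0 plate.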

[4] = test system: Ba/F3 parental cells; assay: Cell growth inhibitory activity assay (CellTiter-Glo), Ba/F3 parental cells; conditions: Mus musculus, BaF3, 72 h, CTG cell viability, read-out: IC50 Ba/F3 BCR-ABL1 Parental
Method in brief: as §1

| IC50 [1] | Structure (SMILES) | IC50 [2] | IC50 [3] | IC50 [4] |
| --- | --- | --- | --- | --- |
| ≤ 5 nM | C[C@@H]1COCc2nc3cc(C(=O)Nc4ccc(OC(F)(F)Cl)cc4)cc(-c4cnc5c(c4)-c4nn(-c6nccc(-c7cncc(F)c7)n6)cc4C5)c3n21 [T-96, (R)-N-(4-(chlorodifluoromethoxy)phenyl)-6-(2-(4-(5-fluoropyridin-3-yl)pyrimidin-2-yl)-2,4-dihydropyrazolo[3',4':3,4]cyclopenta[1,2-b]pyridin-7-yl)-4-methyl-3,4-dihydro-1H-benzo[4,5]imidazo[2,1-c][1,4]oxazine-8-carboxamide] | ≤ 5 nM | ≤ 5 nM | > 1000 nM |
| ≤ 5 nM | C[C@@H]1COCc2nc3cc(C(=O)Nc4ccc(OC(F)(F)Cl)cc4)cc(-c4cnc5c(c4)-c4nn(-c6nccn6C)cc4C5)c3n21 [T-102, (R)-N-(4-(chlorodifluoromethoxy)phenyl)-4-methyl-6-(2-(1-methyl-1H-imidazol-2-yl)-2,4-dihydropyrazolo[3',4':3,4]cyclopenta[1,2-b]pyridin-7-yl)-3,4-dihydro-1H-benzo[4,5]imidazo[2,1-c][1,4]oxazine-8-carboxamide] | ≤ 5 nM | ≤ 5 nM | > 1000 nM |
| ≤ 5 nM | CC(C)n1cnc2cc(C(=O)Nc3ccc(OC(F)(F)Cl)cc3)cc(-c3cnc4c(c3)-c3nn(-c5ncc(F)cn5)cc3C4)c21 [T-121, N-(4-(chlorodifluoromethoxy)phenyl)-7-(2-(5-fluoropyrimidin-2-yl)-2,4-dihydropyrazolo[3',4':3,4]cyclopenta[1,2-b]pyridin-7-yl)-1-isopropyl-1H-benzo[d]imidazole-5-carboxamide] | ≤ 5 nM | ≤ 5 nM | > 1000 nM |
| ≤ 5 nM | COc1ncc(-c2ccnc(-n3cc4c(n3)-c3cc(-c5cc(C(=O)Nc6ccc(OC(F)(F)Cl)cc6)cc6nc7n(c56)[C@H](C)COC7)cnc3C4)n2)cc1F [T-97, (R)-N-(4-(chlorodifluoromethoxy)phenyl)-6-(2-(4-(5-fluoro-6-methoxyoyridin-3-yl)pyrimidin-2-yl)-2,4-dihydropyrazolo[3',4':3,4]cyclopenta[1,2-b]pyridin-7-yl)-4-methyl-3,4-dihydro-1H-benzo[4,5]imidazo[2,1-c][1,4]oxazine-8-carboxamide] | ≤ 5 nM | ≤ 5 nM | > 1000 nM |
| ≤ 5 nM | C[C@@H]1COCc2nc3cc(C(=O)Nc4ccc(OC(F)(F)Cl)cc4)cc(-c4cnc5c(c4)-c4nn(-c6ncc7ccsc7n6)cc4C5)c3n21 [T-83, (R)-N-(4-(chlorodifluoromethoxy)phenyl)-4-methyl-6-(2-(thieno[2,3-d]pyrimidin-2-yl)-2,4-dihydropyrazolo[3',4':3,4]cyclopenta[1,2-b]pyridin-7-yl)-3,4-dihydro-1H-benzo[4,5]imidazo[2,1-c][1,4]oxazine-8-carboxamide] | ≤ 5 nM | ≤ 5 nM | > 1000 nM |
| ≤ 5 nM | O=C(Nc1ccc(OC(F)(F)Cl)cc1)c1cnc(N2CC[C@@H](F)C2)c(-c2cnc3c(c2)-c2nn(-c4ncccn4)cc2C3)c1 [T-5, (R)-N-(4-(chlorodifluoromethoxy)phenyl)-6-(3-fluoropvrrolidin-1-yl)-5-(2-(pyrimidin-2-yl)-2,4-dihydropyrazolo[3',4':3,4]cyclopenta[1,2-b]pyridin-7-yl)nicotinamide] | ≤ 5 nM | ≤ 5 nM | > 1000 nM |
| ≤ 5 nM | COc1nc(OC)nc(-n2cc3c(n2)-c2cc(-c4cc(C(=O)Nc5ccc(OC(F)(F)Cl)cc5)cc5nc6n(c45)[C@H](C)COC6)cnc2C3)n1 [T-70, (R)-N-(4-(chlorodifluoromethoxy)phenyl)-6-(2-(4,6-dimethoxy-1,3,5-triazin-2-yl)-2,4-dihydropyrazolo[3',4':3,4]cyclopenta[1,2-b]pyridin-7-yl)-4-methyl-3,4-dihydro-1H-benzo[4,5]imidazo[2,1-c][1,4]oxazine-8-carboxamide] | ≤ 5 nM | 5 to 50 nM | > 1000 nM |
| ≤ 5 nM | O=C(Nc1ccc(OC(F)(F)Cl)cc1)c1cc2c(c(-c3cnc4c(c3)-c3nn(-c5ncccn5)cc3C4)c1)C1(CCCCC1)C(=O)N2 [T-126, N-(4-(chlorodifluoromethoxy)phenyl)-4'-(2-(pyrimidin-2-yl)-2,4-dihydropyrazolo[3',4':3,4]cyclopenta[1,2-b]pyridin-7-yl)-2'-oxospiro[cyclohexane-1,3'-indoline]-6'-carboxamide] | ≤ 5 nM | ≤ 5 nM | > 1000 nM |
| ≤ 5 nM | C[C@@H]1COCc2nc3cc(C(=O)Nc4ccc(OC(F)(F)Cl)cc4)cc(-c4cnc5c(c4)-c4nn(-c6nccc(-c7cncc(C#N)c7)n6)cc4C5)c3n21 [T-98, (R)-N-(4-(chlorodifluoromethoxy)phenyl)-6-(2-(4-(5-cyanopyridin-3-yl)pyrimidin-2-yl)-2,4-dihydropyrazolo[3',4':3,4]cyclopenta[1,2-b]pyridin-7-yl)-4-methyl-3,4-dihydro-1H-benzo[4,5]imidazo[2,1-c][1,4]oxazine-8-carboxamide] | ≤ 5 nM | ≤ 5 nM | > 1000 nM |
| ≤ 5 nM | C[C@@H]1COCc2nc3cc(C(=O)Nc4ccc(OC(F)(F)Cl)cc4)cc(-c4ccc5c(c4)-c4nn(-c6ncccn6)cc4C5)c3n21 [T-109] | ≤ 5 nM | ≤ 5 nM | > 1000 nM |
| ≤ 5 nM | O=C(Nc1ccc(OC(F)(F)Cl)cc1)c1cnc(N2CC[C@@H](F)C2)c(-c2cnc3c(c2)-c2nn(-c4ncc5ccccc5n4)cc2C3)c1 [T-29, (R)-N-(4-(chlorodifluoromethoxy)phenyl)-6-(3-fluoropyrrolidin-1-yl)-5-(2-(quinazolin-2-yl)-2,4-dihydropyrazolo[3',4':3,4]cyclopenta[1,2-b]pyridin-7-yl)nicotinamide] | ≤ 5 nM | 5 to 50 nM | > 1000 nM |
| ≤ 5 nM | C[C@@H]1COCc2nc3cc(C(=O)Nc4ccc(OC(F)(F)Cl)cc4)cc(-c4cnc5c(c4)-c4nn(-c6ncc(-c7ccccc7)cn6)cc4C5)c3n21 [T-80, (R)-N-(4-(chlorodifluoromethoxy)phenyl)-4-methyl-6-(2-(5-phenylpyrimidin-2-yl)-2,4-dihydropyrazolo[3',4':3,4]cyclopenta[1,2-b]pyridin-7-yl)-3,4-dihydro-1H-benzo[4,5]imidazo[2,1-c][1,4]oxazine-8-carboxamide] | ≤ 5 nM | ≤ 5 nM | > 1000 nM |
| ≤ 5 nM | C[C@@H]1COCc2nc3cc(C(=O)Nc4ccc(OC(F)(F)Cl)cc4)cc(-c4cnc5c(c4)-c4nn(-c6nccc(N7CCOCC7)n6)cc4C5)c3n21 [T-88, (R)-N-(4-(chlorodifluoromethoxy)phenyl)-4-methyl-6-(2-(4-morpholinopyrimidin-2-yl)-2,4-dihydropyrazolo[3',4':3,4]cyclopenta[1,2-b]pyridin-7-yl)-3,4-dihydro-1H-benzo[4,5]imidazo[2,1-c][1,4]oxazine-8-carboxamide] | ≤ 5 nM | ≤ 5 nM | > 1000 nM |
| ≤ 5 nM | CC(C)C(=O)n1cc2c(n1)-c1cc(-c3cc(C(=O)Nc4ccc(OC(F)(F)Cl)cc4)cc4nc5n(c34)[C@H](C)COC5)cnc1C2 [T-46, (R)-N-(4-(chlorodifluoromethoxy)phenyl)-6-(2-isobutyryl-2,4-dihydropyrazolo[3',4':3,4]cyclopenta[1,2-b]pyridin-7-yl)-4-methyl-3,4-dihydro-1H-benzo[4,5]imidazo[2,1-c][1,4]oxazine-8-carboxamide] | ≤ 5 nM | ≤ 5 nM | > 1000 nM |
| ≤ 5 nM | C[C@@H]1COCc2nc3cc(C(=O)Nc4ccc(OC(F)(F)Cl)cc4)cc(-c4ccc5c(c4)-c4nc(N)sc4C5)c3n21 [T-111, (R)-6-(2-amino-8H-indeno[1,2-d]thiazol-5-yl)-N-(4-(chlorodifluoromethoxy)phenyl)-4-methyl-3,4-dihydro-1H-benzo[4,5]imidazo[2,1-c][1,4]oxazine-8-carboxamide] | ≤ 5 nM | 5 to 50 nM | > 1000 nM |
| ≤ 5 nM | O=C(Nc1ccc(OC(F)(F)Cl)cc1)c1cnc(N2CC[C@@H](F)C2)c(-c2cnc3c(c2)-c2nn(-c4ncc(C(F)(F)F)cn4)cc2C3)c1 [T-15, (R)-N-(4-(chlorodifluoromethoxy)phenyl)-6-(3-fluoropyrrolidin-1-yl)-5-(2-(5-(trifluoromethyl)pyrimidin-2-yl)-2,4-dihydropyrazolo[3',4':3,4]cyclopenta[1,2-b]pyridin-7-yl)nicotinamide] | ≤ 5 nM | 5 to 50 nM | > 1000 nM |
| ≤ 5 nM | Cc1cnc(-n2cc3c(n2)-c2cc(-c4cc(C(=O)Nc5ccc(OC(F)(F)Cl)cc5)cnc4N4CC[C@@H](F)C4)cnc2C3)nc1 [T-14, (R)-N-(4-(chlorodifluoromethoxy)phenyl)-6-(3-fluoropyrrolidin-1-yl)-5-(2-(5-methylpyrimidin-2-yl)-2,4-dihydropyrazolo[3',4':3,4]cyclopenta[1,2-b]pyridin-7-yl)nicotinamide] | ≤ 5 nM | ≤ 5 nM | > 1000 nM |

| Structure (SMILES) | IC50 [1] | IC50 [2] | IC50 [3] | IC50 [4] |
| --- | --- | --- | --- | --- |
| CC1(C)C(=O)Nc2cc(C(=O)Nc3ccc(OC(F)(F)Cl)cc3)cc(-c3cnc4c(c3)-c3n[nH]cc3C4)c21 [T-122, N-(4-(chlorodifluoromethoxy)phenyl)-4-(2,4-dihydropyrazolo[3',4':3,4]cyclopenta[1,2-b]pyridin-7-yl)-3,3-dimethyl-2-oxoindoline-6-carboxamide] | ≤ 5 nM | ≤ 5 nM | 5 to 50 nM | > 1000 nM |
